From BindingDB's records for doi:10.1021/jm5006226 (Bristol Myers Squibb, 2014)
pIC50: −log10 of the molar value.

Assay: Antagonist activity at P2Y1 receptor in platelet-enriched human plasma assessed as 10 uM ADP-induced platelet aggregation preincubated for 1 min followed by ADP induction measured at 5 mins by aggregometric analysis
Work on CC1(C)CN(c2ccccc2NC(=O)Nc2ccc(OC(F)(F)F)cc2)c2c(O)ccc(-c3cc(F)cc(F)c3)c21 yielded a pIC50 of 6.74.
For CC1(C)CN(c2ccccc2NC(=O)Nc2csc(Cl)n2)c2c(O)ccc(-c3ccc(F)cc3)c21, the pIC50 was 7.05.
With CC1(C)CN(c2ccccc2NC(=O)Nc2ccc(OC(F)(F)F)cc2)c2c(O)cc(F)c(-c3ccc(C(F)(F)F)cn3)c21 the pIC50 was 6.96.
Compound CC1(C)CN(c2ccccc2NC(=O)Nc2nc3ccc(Cl)nc3s2)c2c(O)ccc(-c3ccc(F)cc3)c21 has a pIC50 of 6.64.
Work on CCOC(=O)C1(C)CN(c2ccccc2NC(=O)Nc2nc3ccc(Cl)nc3s2)c2c(O)ccc(Cl)c21 (stereo not drawn) yielded a pIC50 of 6.21.
Compound CC(C)(C)CN1CCC2(CC1)CN(c1ccccc1NC(=O)Nc1ccc(OC(F)(F)F)cc1)c1c(O)cc(F)c(-c3ccc(Cl)cc3)c12 has a pIC50 of 6.70.
Compound CC1(C)CN(c2ccccc2NC(=O)Nc2ccc(OC(F)(F)F)cc2)c2c(O)ccc(-c3ccccc3)c21 has a pIC50 of 6.74.
CCOC(=O)C1(C)CN(c2ccccc2NC(=O)Nc2ccc(OC(F)(F)F)cc2)c2c(O)ccc(Cl)c21 (stereo not drawn) showed a pIC50 of 5.51.
For CC1(C)CN(c2ccccc2NC(=O)Nc2ccc(OC(F)(F)F)cc2)c2c(O)ccc(-c3ccc(Cl)cc3)c21, the pIC50 was 6.68.
For CC(C)(C)CN1CCCC1c1ccc(NC(=O)Nc2ccccc2N2CC(C)(C)c3c(-c4ccc(F)cc4)ccc(O)c32)cc1 (stereo not drawn), the pIC50 was 7.05.
CC1(C)CN(c2ccccc2NC(=O)Nc2ccc(OC(F)(F)F)cc2)c2c(O)cc(F)c(-c3ccc(F)cc3)c21 showed a pIC50 of 6.72.
For CC1(CC(F)(F)F)CN(c2ccccc2NC(=O)Nc2ccc(OC(F)(F)F)cc2)c2c(O)ccc(Cl)c21 (stereo not drawn), the pIC50 was 5.54.
Compound CC1(C)CN(c2ccccc2NC(=O)Nc2ccc(OC(F)(F)F)cc2)c2c(O)ccc(-c3ccc(F)cc3F)c21 has a pIC50 of 6.80.
Work on CC1(C)CN(c2ccccc2NC(=O)Nc2ccc(OC(F)(F)F)cc2)c2c(O)ccc(-c3cccc(F)c3)c21 yielded a pIC50 of 6.62.
Compound CC1(C)CN(c2ccccc2NC(=O)Nc2ccc(OC(F)(F)F)cc2)c2c(O)c(F)cc(-c3ccc(Cl)cc3)c21 has a pIC50 of 6.52.
With CC1(C)CN(c2ccccc2NC(=O)Nc2nc3ccc(Cl)nc3s2)c2c(O)ccc(Cl)c21 the pIC50 was 5.85.
Work on CC(C)(C)CN1CCC2(CC1)CN(c1ccccc1NC(=O)Nc1nc3ccc(Cl)nc3s1)c1c(O)ccc(Cl)c12 yielded a pIC50 of 6.89.
For CC1(C)CN(c2ccccc2NC(=O)Nc2ccc(OC(F)(F)F)cc2)c2c(O)cc(F)c(-c3ncc(F)cn3)c21, the pIC50 was 6.02.
Compound CC1(C)CN(c2ccccc2NC(=O)Nc2ccc(OC(F)(F)F)cc2)c2c(O)ccc(-c3ccc(F)c(F)c3)c21 has a pIC50 of 6.40.
Work on CC1(C)CN(c2ccccc2NC(=O)Nc2ccc(OC(F)(F)F)cc2)c2c(O)cc(F)c(-c3cnc(Cl)cn3)c21 yielded a pIC50 of 6.59.
With CC1(C)CN(c2ccccc2NC(=O)Nc2ccc(OC(F)(F)F)cc2)c2c(O)ccc(-c3ccc(C(F)(F)F)cc3)c21 the pIC50 was 6.64.
In the case of CC1(C)CN(c2ccccc2NC(=O)Nc2ccc(OC(F)(F)F)cc2)c2c(O)c(F)cc(-c3ccc(F)cc3)c21, the pIC50 was 6.41.
In the case of Cc1nc(NC(=O)Nc2ccccc2N2CC(C)(C)c3c(-c4ccc(F)cc4)ccc(O)c32)cs1, the pIC50 was 6.37.
For CC1(C)CN(c2ccccc2NC(=O)Nc2ccc(OC(F)(F)F)cc2)c2c(O)ccc(Cl)c21, the pIC50 was 6.06.
With CC1(C)CN(c2ccccc2NC(=O)Nc2ccc(OC(F)(F)F)cc2)c2c(O)ccc(-c3ccc(F)cc3)c21 the pIC50 was 6.80.
Compound CC1(C)CN(c2ccccc2NC(=O)Nc2ccc(OC(F)(F)F)cc2)c2c(O)cc(F)c(-c3ccc(Cl)s3)c21 has a pIC50 of 6.89.
CC(C)(C)CN1CCC2(CC1)CN(c1ccccc1NC(=O)Nc1ccc(OC(F)(F)F)cc1)c1c(O)cc(F)c(-c3ccc(F)cc3)c12 showed a pIC50 of 6.85.
Compound CC(C)(C)CN1CCC2(CC1)CN(c1ccccc1NC(=O)Nc1nc3ccc(Cl)nc3s1)c1c(O)cc(F)c(-c3ccc(F)cc3)c12 has a pIC50 of 6.74.
In the case of CC(C)CN1CCCC1c1ccc(NC(=O)Nc2ccccc2N2CC(C)(C)c3c(-c4ccc(F)cc4)ccc(O)c32)cc1 (stereo not drawn), the pIC50 was 7.30.
CC1(C)CN(c2ccccc2NC(=O)Nc2ccc(OC(F)(F)F)cc2)c2c(O)ccc(-c3ccccc3F)c21 gave a pIC50 of 7.10.
Work on CC1(C)CN(c2ccccc2NC(=O)Nc2ccc(OC(F)(F)F)cc2)c2c(O)cc(F)c(-c3cc(F)nc(F)c3)c21 yielded a pIC50 of 6.80.
Compound CC1(C)CN(c2ccccc2NC(=O)Nc2ccc(OC(F)(F)F)cc2)c2c(O)cc(F)c(-c3ccc(C(F)(F)F)nc3)c21 has a pIC50 of 6.82.
CC1(C)CN(c2ccccc2NC(=O)Nc2ccc(OC(F)(F)F)cc2)c2c(O)cc(F)c(-c3ccc(Cl)cc3)c21 showed a pIC50 of 6.62.
